Here are results for four molecules from ChEMBL document CHEMBL1201862, “PubChem BioAssay data set” (2004).

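Method: 48-hour compound exposure of cells in 96-well plates, five concentrations, linear interpolation of endpoints. At the GI50, growth is halved.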 Calls of active or inactive are those of the source. Cut-off read from the data, not from the text of the source: active = GI50 up to about 1.1 µM and inactive = higher.

Some test systems named below: ACHN; SN12C; NCI/ADR-RES; A549; MCF7; HCT-116; SW-620; HCT-15; SF-539; NCI-H522; SNB-19; KM12; SK-MEL-28; HOP-92; Hs-578T; CAKI-1; SF-295; TK-10; RXF 393; IGROV-1.
Common to all, as to test: NCI-60 cell line screen, 48 h

In the case of `CCN(CC)CC1CCCCN1CC(=O)N1c2ccccc2NC(=O)c2ccccc21` (stereo not given), the GI50 in the assay with ACHN, in the assay on SN12C, in the assay with NCI/ADR-RES, in the assay on A549, with MCF7 and with HCT-116 was > 100 µM (inactive) each time. Also, the GI50 with SW-620 is > 100 µM (inactive); in the assay on HCT-15, greater than 100 µM; with SF-539 it was > 100 µM (inactive); with NCI-H522 it was > 100 µM (inactive); in the assay with SNB-19 it was > 100 µM (inactive); in the assay on KM12, > 100 µM (inactive). The GI50 in the assay on SK-MEL-28, in the assay with HOP-92, with Hs-578T, in the assay with CAKI-1, in the assay with SF-295 and in the assay with TK-10 was > 100 µM (inactive) in each case. Besides, the GI50 in the assay with RXF 393 and in the assay on IGROV-1 was > 100 µM (inactive) in each case.

As for `C=CCN1C(=O)CNC1=S`, the GI50 with ACHN, in the assay on SN12C, in the assay on NCI/ADR-RES, in the assay with A549, with MCF7 and in the assay with HCT-116 was > 100 µM (inactive) throughout. In addition, the GI50 was > 100 µM (inactive) in the assay with SW-620; greater than 100 µM in the assay on HCT-15; > 100 µM (inactive) in the assay on SF-539; > 100 µM (inactive) in the assay on NCI-H522; > 100 µM (inactive) in the assay with SNB-19; > 100 µM (inactive) in the assay with KM12. The GI50 with SK-MEL-28, with HOP-92, with Hs-578T, in the assay with CAKI-1, in the assay on SF-295 and in the assay with TK-10 was > 100 µM (inactive) in each case. For the same molecule, the GI50 in the assay with RXF 393 and in the assay on IGROV-1 was > 100 µM (inactive) in each case.

On to `O=C1CCc2c(sc3ncnc(Nc4cccc(Br)c4)c23)C1`, for which the GI50 in the assay on ACHN was 1.69 µM (inactive); with SN12C, 3.4 µM (inactive); with NCI/ADR-RES, 2.94 µM (inactive); with A549, 3.11 µM (inactive); in the assay on MCF7, 3.93 µM (inactive); in the assay with HCT-116 it was 3.56 µM (inactive). For the same molecule, the GI50 was 3.62 µM (inactive) in the assay with SW-620; 3.24 µM in the assay on HCT-15; 3.63 µM (inactive) in the assay with SF-539; 2.1 µM (inactive) in the assay with NCI-H522; 4.12 µM (inactive) with SNB-19; 3.6 µM (inactive) in the assay on KM12. Moreover, the GI50 with SK-MEL-28 is 24.2 µM (inactive); in the assay with HOP-92, 2.54 µM (inactive); with Hs-578T it was 4.15 µM (inactive); with CAKI-1, 2.09 µM (inactive); in the assay on SF-295 it was 3.88 µM (inactive); in the assay on TK-10, 4.06 µM (inactive). Also, the GI50 with RXF 393 was 2.73 µM (inactive); in the assay on IGROV-1, 1.68 µM (inactive).

Consider `FC(F)(F)c1cc(N(C2c3ccccc3C=Cc3ccccc32)P(Cl)Cl)cc(C(F)(F)F)c1`, for which the GI50 in the assay with ACHN was 17.5 µM (inactive); in the assay on SN12C, 16.9 µM (inactive); in the assay with NCI/ADR-RES, 3.62 µM (inactive); in the assay with A549, 18.3 µM (inactive); with MCF7, 20.7 µM (inactive); in the assay on HCT-116 it was 16.5 µM (inactive). The GI50 in the assay on SW-620 is 25.4 µM (inactive); in the assay on HCT-15, 5.78 µM; with SF-539 it was 26.7 µM (inactive); with NCI-H522 it was 14.1 µM (inactive); in the assay on SNB-19, 21.8 µM (inactive); with KM12, 21.4 µM (inactive). For the same molecule, the GI50 was 25.6 µM (inactive) with SK-MEL-28; 15.6 µM (inactive) in the assay with HOP-92; 25.5 µM (inactive) with Hs-578T; 21.9 µM (inactive) in the assay with CAKI-1; 19 µM (inactive) in the assay with SF-295; 33 µM (inactive) in the assay with TK-10. Besides, the GI50 in the assay with RXF 393 is 13.8 µM (inactive); with IGROV-1, 26.2 µM (inactive).
